{"source": "paper PMC5460289", "about": "“Identification of New Shikonin Derivatives as Antitumor Agents Targeting STAT3 SH2 Domain” (Scientific Reports, 2017)", "format_in_all_cases": "cell-based, human", "key": {"[1]": {"system": "MDA-MB-231 cells", "assay": "Annexin V/PI double staining apoptosis assay (flow cytometry)", "details": "for percentage of cell apoptosis (early and late apoptotic cells): 24 h, MDA-MB-231, control 3.12%", "description": "To determine whether PMM-172 induced apoptosis, Annexin V/PI double staining assay was conducted. MDA-MB-231 cells were treated with various concentrations of PMM-172 for 24 h, and the percentage of apoptotic cells was markedly elevated in a dose-dependent manner. Likewise, MDA-MB-231 cells were treated with corresponding doses of Stattic. […] The percentages of cell apoptosis 3.12%, 8.12%, 16.81%, 62.74% corresponded to the concentration of PMM-172 0, 2, 4 and 8 μM, respectively, including both the early and the late apoptotic cells. Clearly, PMM-172 can cause cell apoptosis more effectively than Stattic. Moreover, an extend time-course apoptosis analysis of MDA-MB-231 cells treated with 4 μM PMM-172 was carry out. […] To further assess the pro-apoptotic effect of PMM-172, we evaluated the cleavage of poly (ADP-ribose) polymerase (PARP) and caspase 3 in MDA-MB-231 cells after 24 h treatment with PMM-172. In this case, the active form of PARP involved in DNA repair and programmed cell death is considered as the hallmark of apoptosis.\nFigure 4 The effect of PMM-172 on the cell apoptosis of MDA-MB-231 cells. (A) MDA-MB-231 cells were treated with various concentrations of PMM-172 or Stattic for 24 h, or treated with 4 μM PMM-172 for different time. Apoptosis was analyzed by flow cytometry by using Annexin V/PI double staining. (B) The percentage of apoptotic cells in MDA-MB-231 cells treated with various concentrations of PMM-172 for 24 h. (C) The percentage of apoptotic cells in MDA-MB-231 cells treated with 4 μM PMM-172 for different time. (D) The percentage of apoptotic cells in MDA-MB-231 cells treated with various concentrations of Stattic for 24 h. (E) PARP and caspase 3 cleavage in MDA-MB-231 cells after treated with various concentrations of PMM-172 for 24 h were detected by using Western blot analysis. The relative expression level was analyzed by Image J software. […]\nApproximately 10^5 cells/well were plated in a 24 well plate and allowed to adhere. […] The samples were then analyzed by a FACSCalibur flow cytometer (Becton Dickinson, San Jose, CA, USA)."}, "[2]": {"system": "STAT5", "assay": "Western blot of STAT5 phosphorylation and expression", "details": "MDA-MB-231", "description": "(§1) Figure 6 (A) PMM-172 suppressed constitutive pSTAT3 (Tyr705) in a dose-dependent manner. (B) PMM-172 suppressed constitutive pSTAT3 (Tyr705) in a time-dependent manner. (C) MDA-MB-231 cells were treated with IL-6 (20 ng/mL) or vehicle for 30 min, with or without pretreatment with PMM-172 (2 μM) for 24 h. PMM-172 inhibited IL-6 induced phosphorylation of STAT3. (D) Stattic suppressed constitutive pSTAT3 (Tyr705) in a dose-dependent manner. (E) Stattic suppressed constitutive pSTAT3 (Tyr705) in a time-dependent manner. (F) Tyrosine phosphorylation of two STAT family proteins STAT1 and STAT5 were detected with specific antibodies. […] Data were shown as mean ± SD of three independent experiments. *P < 0.05, **P < 0.01. Cropped blots/gels were used in the figure and the gels had been run under the same experimental conditions; the full-length blots/gels are presented in Supplementary Figure S2.\nSubsequently, we evaluated the phosphorylation level of other STAT family proteins including STAT1 and STAT5.\n(§2) Cells were rinsed twice with cold PBS and then lysed with RIPA buffer containing a protease inhibitor mixture at 1:100 dilution on ice for 30 min. Insoluble components of cell lysates were removed by centrifugation (4 °C, 12000 rmp, 10 min), and protein concentrations were measured using a Pierce BCA protein assay kit. […]"}, "[3]": {"system": "pSTAT3 (Tyr705) in MDA-MB-231 cells", "assay": "Western blot of constitutive STAT3 activation", "from_the_text": "It has been well recognized that the aberrant activation of STAT3 contributes to malignant transformation and tumorgenesis, and its activity is ultimately dependent upon phosphorylation of residue Y705. […] In this study, the ability of PMM-172 and Stattic inhibiting the constitutive STAT3 activation in MDA-MB-231 cells was investigated. […] We further measured STAT3 phosphorylation at Tyr705 in a time-course experiment.\nas §1\nCells were rinsed twice with cold PBS and then lysed with RIPA buffer containing a protease inhibitor mixture at 1:100 dilution on ice for 30 min. Insoluble components of cell lysates were removed by centrifugation (4 °C, 12000 rmp, 10 min), and protein concentrations were measured using a Pierce BCA protein assay kit. Proteins were separated by sodium dodecyl sulfate-polyacrylamide gel electrophoresis (SDS-PAGE) and transferred from the gel onto polyvinylidene difluoride (PVDF) membranes. The membranes were blocked with 5% skim milk in TBST buffer for 1 h at room temperature, and then incubated with corresponding primary antibodies diluted in 5% milk-TBST solution at 4 °C with gentle shaking overnight. After washing five times (5 min each), corresponding HRP-conjugated secondary antibodies were incubated for 1 h at room temperature. Immunoreactive bands were visualized using an ECL detection kit (Invitrogen, USA) following the manufacturer’s instruction."}, "[4]": {"system": "pSTAT3 in MCF-10A cells", "assay": "Western blot of pSTAT3 in non-tumorigenic cells", "details": "24 h, increasing doses", "description": "Figure 7 MDA-MB-231 cells were treated with indicated concentrations of PMM-172 or Stattic for 24 h, the expression levels of STAT3 in cytoplasmic and nuclear extracts were examined and relative expression levels were analyzed by Image J software. β-actin and Lamin B1 served as markers of cytoplasmic and nuclear extractions, respectively. […] (C) MCF-10A cells were treated with the indicated concentrations of PMM-172 for 24 h. PMM-172 had no effect on the level of the pSTAT3 level in MCF-10A cells. […] Data were shown as mean ± SD from three independent experiments, **P < 0.01. Cropped blots/gels were used in the figure and the gels had been run under the same experimental conditions; the full-length blots/gels are presented in Supplementary Figure S3.\nIn the following work, we examined whether PMM-172 could affect the activity of STAT3 and viability in non-cancer cells. The non-tumorigenic MCF-10A epithelial cells were employed to be treated with increasing doses of PMM-172 to conduct this assay.\nas §2"}}}
{"smiles": "COc1cc(OC)cc(-c2nnc(SCC(=O)O[C@H](CC=C(C)C)C3=CC(=O)c4c(O)ccc(O)c4C3=O)o2)c1", "note": "[PMM-172, (R)-1-(5,8-dihydroxy-1,4-dioxo-1,4-dihydronaphthalen-2-yl)-4-methylpent-3-en-1-yl 2-((5-(3,5-dimethoxyphenyl)-1,3,4-oxadiazol-2-yl)thio)acetate]", "values": [{"measurement": "percentage of cell apoptosis (early and late apoptotic cells)", "setting": "[1]; 4 μM", "result": 16.81, "unit": "%"}, {"measurement": "percentage of cell apoptosis (early and late apoptotic cells)", "setting": "[1]; 8 μM", "result": 62.74, "unit": "%"}, {"measurement": "induction of apoptosis", "setting": "[1]; MDA-MB-231, Annexin V/PI", "result": "induced apparent apoptosis in MDA-MB-231 cells in dose- and time- dependent manners"}, {"measurement": "phosphorylation and expression of STAT5", "setting": "[2]", "result": "inhibited neither the phosphorylation nor expression"}, {"measurement": "STAT3 expression", "setting": "[3]", "result": "had no effect on STAT3 expression"}, {"measurement": "STAT3 phosphorylation at Tyr705, time-course", "setting": "[3]", "result": "reduced with the longer treatment"}, {"measurement": "level of Y705-phosphorylated STAT3 (constitutive), dose series", "setting": "[3]", "result": "could reduce the level of Y705-phosphorylated STAT3 in MDA-MB-231 cells in a dose-dependent manner"}, {"measurement": "expression levels of total STAT3 in MCF-10A cells", "setting": "[4]", "result": "kept unchanged"}, {"measurement": "pSTAT3 level in MCF-10A cells", "setting": "[4]", "result": "had no effect"}]}
